Paper PMC12627627 (Nature Communications, 2025)
Blank lines part the entries; values can stand above or below the molecule they belong to.

Legend:
Format in all cases: binding
[1] = target: T1, R12 domain of RyR1 (Homo sapiens, UniProt P21817); assay: ITC, R12 domain of RyR1; details: AMP-PCP or ADP alone, without DAN/AZU (Supplementary Fig. 1)
T1 construct: RyR1 854–1054, RyR2 865–1065, RyR3 853–1053; made in house; host or cells: E. coli BL21 (DE3)
T1 sequence (P21817 854-1054): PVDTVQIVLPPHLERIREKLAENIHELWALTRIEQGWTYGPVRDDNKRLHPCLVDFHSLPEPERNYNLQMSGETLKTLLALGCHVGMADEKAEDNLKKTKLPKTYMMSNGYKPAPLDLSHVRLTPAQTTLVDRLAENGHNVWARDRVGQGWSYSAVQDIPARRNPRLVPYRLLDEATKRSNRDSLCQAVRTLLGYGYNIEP
Method: (§1) The plasmids were subsequently transformed into E. coli BL21 (DE3) cells (NEB, USA) and cultured in Luria-Bertani (LB) media at 37 °C. Protein expression was induced with 0.4 mM isopropyl β-D-thiogalactoside (IPTG) when the optical density (OD)600 reached ~0.8, followed by incubation at 18 °C for 12 h. The cells were harvested via centrifugation at 5,000 × g for 15 min at 4 °C and homogenized in Buffer A (10 mM HEPES, pH 7.4, 250 mM KCl) supplemented with 25 µg/mL DNaseI, 25 µg/mL lysozyme, 1 mM phenylmethylsulfonyl fluoride (PMSF), and 20 mM imidazole. The homogenate was centrifuged at 12,000 × g for 45 min, and the supernatant was filtered through a syringe filter (0.22 µm).
(§2) Purified R12 domain protein from the three RyR isoforms, fused with hexahistidine-tagged MBP (HMT-R12) was dialyzed overnight at 4 °C in ITC buffer (200 mM HEPES, pH 7.4, 150 mM KCl). ITC experiments were performed using a PEAQ-ITC instrument (Malvern, UK) at 25 °C with a stirring speed of 750 rpm. […] For the ternary binding experiments, 500 μM or 5 mM AMP-PCP/ADP was preincubated with both the titrants and titrates. […] The data was fit to a one-site fitting model after background buffer subtraction. The RyR1 R12 mutants were generated using a QuikChange mutagenesis kit (Stratagene) according to the manufacturer’s protocol, with primer sequences listed in Supplementary Table 3.

[2] = target: T2, R12 domain of RyR2 (Homo sapiens, UniProt Q92736); assay: ITC, R12 domain of RyR2; details: absence or presence of AMP-PCP or ADP
T2 construct: RyR1 854–1054, RyR2 865–1065, RyR3 853–1053; made in house; host or cells: E. coli BL21 (DE3)
T2 sequence (Q92736 865-1065): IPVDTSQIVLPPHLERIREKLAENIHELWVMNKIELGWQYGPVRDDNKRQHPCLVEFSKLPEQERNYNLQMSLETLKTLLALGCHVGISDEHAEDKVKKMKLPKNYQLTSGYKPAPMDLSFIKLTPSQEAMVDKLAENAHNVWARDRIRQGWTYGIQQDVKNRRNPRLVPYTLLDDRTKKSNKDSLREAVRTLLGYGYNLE
Method: as §1, §2

[3] = target: T3, R12 domain of RyR3 (Homo sapiens, UniProt Q15413); assay: ITC, R12 domain of RyR3
T3 construct: RyR1 854–1054, RyR2 865–1065, RyR3 853–1053; made in house; host or cells: E. coli BL21 (DE3)
T3 sequence (Q15413 853-1053): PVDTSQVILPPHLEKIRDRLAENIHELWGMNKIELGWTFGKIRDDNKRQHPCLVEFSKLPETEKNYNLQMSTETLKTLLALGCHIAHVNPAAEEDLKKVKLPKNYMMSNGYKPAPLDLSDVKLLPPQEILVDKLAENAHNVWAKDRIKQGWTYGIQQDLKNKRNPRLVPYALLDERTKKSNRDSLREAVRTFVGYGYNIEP
Method: as §1, §2

binding of nucleotide alone by ITC [1]: did not exhibit detectable binding
SMILES: Nc1ncnc2c1ncn2[C@@H]1O[C@H](COP(=O)(O)OP(=O)(O)O)[C@@H](O)[C@H]1O [ADP]

SMILES: Nc1ncnc2c1ncn2[C@@H]1O[C@H](COP(=O)(O)OP(=O)(O)CP(=O)(O)O)[C@@H](O)[C@H]1O [AMP-PCP]
binding of nucleotide alone by ITC [1]: did not exhibit detectable binding

Kd ([3]; RyR3 R12 + 500 µM ADP): 259 ± 31 nM
No of Sites (N) ([3]; RyR3 R12 + 500 µM ADP): 0.461 ± 0.26
ΔH ([3]; RyR3 R12 + 500 µM ADP): -5.53 ± 0.34 kcal/mol
−TΔS ([3]; RyR3 R12 + 500 µM ADP): -3.46 kcal/mol
Kd ([3]; RyR3 R12 + 500 µM AMP-PCP): 72 ± 20 nM
No of Sites (N) ([3]; RyR3 R12 + 500 µM AMP-PCP): 0.726 ± 0.53
ΔH ([3]; RyR3 R12 + 500 µM AMP-PCP): -8.63 ± 0.14 kcal/mol
−TΔS ([3]; RyR3 R12 + 500 µM AMP-PCP): -1.11 kcal/mol
Kd ([3]; RyR3 R12 + 5 mM ADP): 60 ± 9 nM
No of Sites (N) ([3]; RyR3 R12 + 5 mM ADP): 0.606 ± 0.23
ΔH ([3]; RyR3 R12 + 5 mM ADP): -8.21 ± 0.75 kcal/mol
−TΔS ([3]; RyR3 R12 + 5 mM ADP): -1.64 kcal/mol
Kd ([3]; RyR3 R12 + 5 mM AMP-PCP): 26 ± 10 nM
No of Sites (N) ([3]; RyR3 R12 + 5 mM AMP-PCP): 0.842 ± 0.36
ΔH ([3]; RyR3 R12 + 5 mM AMP-PCP): -8.07 ± 0.10 kcal/mol
−TΔS ([3]; RyR3 R12 + 5 mM AMP-PCP): -2.27 kcal/mol
No of Sites (N) ([3]; RyR3 R12, no nucleotide): 0.651 ± 0.11
ΔH ([3]; RyR3 R12, no nucleotide): -80 kcal/mol
−TΔS ([3]; RyR3 R12, no nucleotide): 75.60 kcal/mol
Kd ([3]; RyR3 R12, no nucleotide, ITC 25 °C): 235000 ± 122000 nM
SMILES: O=C1CN(/N=C/c2ccc(-c3ccc([N+](=O)[O-])cc3)o2)C(O)=N1 [DAN, Dantrolene]
binding to RyR2 R12 domain by ITC [2]: neither DAN nor AZU exhibited detectable binding
